The text below walks through data of US7166618B2, “Nitrosated and nitrosylated cyclooxygenase-2 inhibitors, compositions and methods of use” (NitroMed, Inc., priority 1999, dated 2007).

Assay [1] concerns the target T1, ovine COX-2 (Ovis aries, UniProt P79208).
T1 sequence (P79208 17-603): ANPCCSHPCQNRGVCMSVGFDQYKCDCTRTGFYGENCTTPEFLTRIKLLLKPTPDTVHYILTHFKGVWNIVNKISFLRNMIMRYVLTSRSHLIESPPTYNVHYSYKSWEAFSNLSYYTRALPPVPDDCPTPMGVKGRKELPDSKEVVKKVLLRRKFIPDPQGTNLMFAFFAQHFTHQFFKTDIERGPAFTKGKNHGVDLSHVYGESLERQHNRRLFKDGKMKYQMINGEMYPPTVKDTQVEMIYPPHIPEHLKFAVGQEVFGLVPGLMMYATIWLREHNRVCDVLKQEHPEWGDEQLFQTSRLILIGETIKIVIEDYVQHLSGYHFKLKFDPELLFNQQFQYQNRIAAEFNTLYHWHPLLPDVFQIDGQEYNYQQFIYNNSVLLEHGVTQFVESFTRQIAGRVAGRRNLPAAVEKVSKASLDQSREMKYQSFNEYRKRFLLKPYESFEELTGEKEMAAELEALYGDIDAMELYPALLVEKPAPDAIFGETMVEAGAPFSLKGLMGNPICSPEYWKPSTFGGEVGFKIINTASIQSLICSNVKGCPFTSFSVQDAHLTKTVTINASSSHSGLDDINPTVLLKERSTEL
The assay can be described thus: biochemical. The following applies: for IC50: ovine COX-2, read-out: COX-2 IC50. It counts as biochemical. On the procedure:
(§1) The ovine COX-1 and COX-2 activities and the measurement of the prostaglandin products synthesized were performed using the COX Inhibitor Screening Assay (Cayman Chemical, Ann Arbor, Mich., which also contained the Prostaglandin Screening EIA Kit, used for prostaglandin quantification). The test compounds were dissolved at 50 times the highest final reaction concentration in DMSO or any other suitable solvent as stock solutions. These stock solutions were then diluted in the same solvent. Eight glass test tubes (13×100 mm) were placed in a 37° C. water bath. To each test tube was added 950 μL of reaction buffer (0.1 M Tris-HCl, pH 8.0, containing 5 mM EDTA, and 2 mM phenol), 10 μL of 100 µM heme solution, and 10 μL (5 units) of either ovine COX-1 or COX-2 and the resulting mixture was incubated with the enzyme for 2 minutes. Twenty μL of the solvent was added to one tube (100% initial activity or solvent control) and 20 μL of each dilution of the test compound was added to one tube each. Each tube was vortexed immediately after the addition. The enzyme was incubated with the inhibitor for 3.5 minutes at 37° C. The enzymatic reaction was then initiated by the addition of 10 μL of freshly prepared 10 mM arachidonic acid (neutralized with KOH), vortexed and then incubated for 2 minutes at 37° C. The reaction was terminated by the addition of 50 μL of 1 M HCl, vortexed and placed at room temperature. One hundred microliters of a saturated stannous chloride solution (50 mg/mL of 0.1 M HCl) was added and the reaction mixture was allowed to stand at room temperature for at least 5 minutes.
(§2) The prostaglandins (PG) produced in the reactions were assayed, after a 2,000-fold dilution, using the Prostaglandin Screening EIA Kit (Cayman Chemical, Ann Arbor, Mich.). The assay-contains an antibody with broad specificity for all the prostaglandin families (PGF, PGE, PGD, and thromboxane B-type) synthesized in the COX-1/COX 2 reactions. The synthesized prostaglandin competes with a PG-tagged acetylcholine esterase tracer for binding to the PG antibody. Binding of synthesized PG lowers the calorimetric development of the Ellman's Reagent (computed as % B/B0). The actual amount of synthesized PG was interpolated from a standard curve using known amounts of supplied prostaglandin E2 (PGE2) (PGE2 concentration vs. % B/B0). The data generated were the mean±standard deviation of triplicate wells in the EIA for a single reaction at a given inhibitor concentration.

The test system of assay [2] is rat aortic smooth muscle rings. As to the kind of experiment: Relaxation of phenylephrine-contracted rat aortic smooth muscle rings. The following applies: rings precontracted with 10 μM phenylephrine; for relaxation of aortic smooth muscle ring: 100 nM to 100 μM test compound; for relaxation compared with reference NO donor (ISDN or GSNO): comparator as in the value. On the procedure:
Male Sprague-Dawley rats (Charles River Laboratories (Wilmington, Mass.) were euthanized by intraperiton injection of a high dose of sodium pentobarbitone (80–100 mg/kg). The thoracic aorta was rapidly excised and immediately placed in a Petri dish containing warm (37° C.) oxygenated (95% O2 and 5% CO2) Kreb's buffer (composition per millimolar: NaCl (119); KCl (4.69); CaCl2.H2O (2.52); MgSO4.7H2O (0.57); NaHCO3 (25); NaH2PO4.H2O (1.01) and glucose (11.1). Under a stereoscopic dissecting microscope, the aorta was cleaned, freed from adhering fat and connective tissues. The tissue was cut into ring segments, each approximately 2–3 mm in length.
For experiments to measure relaxation of the tissue under various conditions, a stainless steel tissue holder and an U-shaped stainless steel wire were inserted into the lumen of the aortic ring. The tissue holder anchored the ring at the bottom of the organ bath whereas the end of the U-shaped steel wire was tied with fine silk thread so that it connected to the FT-202 transducer. The tissue holder and the steel wire along with the aortic ring were then suspended in a 5-mL double-jacketed temperature-controlled glass organ bath (Radnoti Glass Technology, Inc., Monrovia, Calif.) filled with fresh Kreb's buffer. A mixture of 95% O2 and 5% CO2 was bubbled through a porous sintered disc at the bottom of the bath. The rings were given an initial resting tension of 1.5 g and the preparation was allowed to equilibrate at the initial tension for about 90 minutes. During this equilibration period, the bath fluid was changed every 15 minutes and replaced with fresh prewarmed (37° C.) Kreb's buffer. The isometric tension of the aortic muscle at rest and its response to different stimuli were recorded on a Power Macintosh 6100 computer via a MacLab 8/S computer interface (CB Sciences, Inc, Milford, Mass.) after an initial amplification through a low-noise ETH-400 bioamplifier (CB Sciences, Inc, Milford, Mass.). Contractile responsiveness of the tissue strips was established with 10 μM phenylephrine and the strips were incubated with the drug for 20 minutes to establish a steady level of contraction. To test the relaxation effects, test compounds were added to the phenylephrine-precontracted strips in the tissue bath at cumulative concentrations of 0.1 μM to 0.1 mM. Concentration of test compounds was increased only after relaxation at the previous concentration had reached a plateau level.

Assay [3] addresses T2, ovine COX-1 (Ovis aries, UniProt P05979).
T2 sequence (P05979 25-600): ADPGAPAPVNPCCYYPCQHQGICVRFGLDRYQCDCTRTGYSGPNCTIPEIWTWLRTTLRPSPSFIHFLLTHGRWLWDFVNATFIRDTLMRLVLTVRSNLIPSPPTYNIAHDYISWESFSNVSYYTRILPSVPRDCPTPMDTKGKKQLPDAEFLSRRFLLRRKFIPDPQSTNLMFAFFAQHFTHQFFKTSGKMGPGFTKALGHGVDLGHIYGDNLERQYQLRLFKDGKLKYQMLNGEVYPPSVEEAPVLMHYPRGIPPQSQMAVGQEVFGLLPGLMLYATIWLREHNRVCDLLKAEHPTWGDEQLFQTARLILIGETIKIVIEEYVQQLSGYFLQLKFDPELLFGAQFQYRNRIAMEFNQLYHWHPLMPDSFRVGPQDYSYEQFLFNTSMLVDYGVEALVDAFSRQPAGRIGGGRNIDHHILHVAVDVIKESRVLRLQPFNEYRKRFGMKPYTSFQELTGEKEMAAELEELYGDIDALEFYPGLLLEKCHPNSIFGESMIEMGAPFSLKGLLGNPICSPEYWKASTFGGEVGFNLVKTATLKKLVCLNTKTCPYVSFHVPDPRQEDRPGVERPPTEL
As to the kind of experiment: biochemical. The following applies: for IC50: ovine COX-1. On the procedure:
as §1, §2

For assay [4], the system named is carrageenan-induced rat paw edema. As to the kind of experiment: Carrageenan-induced rat paw edema test. The format is in vivo. The following applies: rats dosed intragastrically, paw volume 3 hours after carrageenan. On the procedure: The carrageenan-induced rat paw edema test was used to measure antiinflammatory activity. The paw edema test was performed according to the method of Winter et al, Proc. Soc. Exp. Biol. Med. 111: 544–547, 1962. Male Sprague-Dawley rats (200–250 g) were fasted for 24 hours with water ad libitum. The rats were dosed intragastrically with test compounds in a volume of 5 mL/kg. One hour after dosing the paw volume was measured. Then each rat received a subplantar injection of 50 μl of 1% suspension of carrageenan. Three hours later, the paw volume was measured and compared with the initial volume measured […]. The increase in paw volume is presented as the mean±SEM for 5 rats per group. Data were analyzed by performing an ANOVA test followed by a Student-Keuls post hoc test.

Entries after “also recorded” stand apart in the source; their conditions may differ.

One may read the IC50 as the concentration that gives 50% inhibition. `Cc1onc(-c2ccccc2)c1-c1ccc(S(=O)(=O)NC(=O)CCC(=O)OCCC2(SN=O)CCN(C)CC2)cc1.O=C(O)CC(O)(CC(=O)O)C(=O)O` [Example 3g, 2-(1-Methyl-4-(nitrosothio)-4-piperidyl)ethyl 3-(N-((4-(5-methyl-3-phenylisoxazol-4-yl)phenyl)sulfonyl)carbamoyl)propanoate Citrate Salt]: the IC50 in assay [1] is 70 µM; in assay [3], more than 300 µM. Moreover, the “COX-2 inhibition potency compared with the parent compound” value in assay [1] (ovine enzymes, from Table 1) is recorded as “not as potent as the parent non-nitrosylated compound”. For the same molecule, in assay [2], the “relaxation of aortic smooth muscle ring” value is “induced the relaxation of the aortic ring”. In addition, in assay [2] (Citrate Salt), the “relaxation compared with reference NO donor (ISDN or GSNO)” value is given as “comparable to that obtained with GSNO”.

As usually defined, the inhibition is the relative decrease from the control value, in per cent. Low values mean a weak effect, high ones a strong effect. On to `NS(=O)(=O)c1ccc(-c2c(-c3ccccc3)noc2CO)cc1` [Example 2a, 4-(5-(Hydroxymethyl)-3-phenylisoxazol-4-yl)benzenesulfonamide, reference compound], for which, in assay [2], the “relaxation of aortic smooth muscle ring” value is recorded as “did not relax the tissue; also recorded: did not relax the aortic ring”. In assay [4], the “paw volume (antiinflammatory activity)” value is “reduced the paw volume”. Moreover, in assay [3] (Ovine COX-1 (footnote a), at 100 μM), 100 µM produced 0% inhibition. In assay [3], the IC50 is more than 300 µM.

Turning to `Cc1ccc(-c2cc(C(F)(F)F)nn2-c2ccc(S(N)(=O)=O)cc2)cc1` [Celecoxib, 4-(5-(4-methylphenyl)-3-(trifluoromethyl)-1H-pyrazol-1-yl)benzenesulfonamide], in assay [4], the “paw volume (antiinflammatory activity)” value was “reduced the paw volume”.

For the molecule `NS(=O)(=O)c1ccc(-n2nc(CO[N+](=O)[O-])cc2-c2ccc(Cl)cc2)cc1` [Example 1b, 4-(5-(4-Chlorophenyl)-3-((nitrooxy)methyl)-3-hydropyrazolyl) benzenesulfonamide], the IC50 in assay [1] came out at 10 µM. Besides, in assay [2], the “relaxation of aortic smooth muscle ring” value is given as “induced the relaxation of the aortic ring” and the “relaxation compared with reference NO donor (ISDN or GSNO)” value is on record as “more potent than that obtained by the nitrate compound, isosorbide dinitrate”. This molecule yielded an IC50 in assay [3] of 190 µM.

Turning to `CS(=O)(=O)c1ccc(-c2nc3cc(CO)ccn3c2-c2ccc(F)cc2)cc1` [Example 5a, 1-(3-(4-Fluorophenyl)-7-(hydroxymethyl)(3a-hydroimidazolo(1,2-a)pyridin-2-yl))-4-(methylsulfonyl)benzene, reference compound], the 50% inhibitory concentration (IC50) was 12 µM in assay [1] and more than 300 µM in assay [3].
